PMC12123460 (ACS Central Science, 2025)
“Also recorded” adds a separate entry of the source. Where two headings read alike, the source gives them in different places.

Assays:
[1] = target: full length human μ opioid receptor (MOR) (Homo sapiens, UniProt P35372); test: 3H-naltrexone radioligand competition binding, MOR membranes
[2] = target: T1, murine κ opioid receptor (KOR) (Mus musculus, UniProt P33534); test: 3H-naltrexone radioligand competition binding, KOR membranes
[3] = target: human MOR (Homo sapiens, UniProt P35372); test: Live cell GloSensor cAMP assay, antagonist mode, MOR-expressing HEK293T cells; details: 10 μM forskolin, DAMGO at EC80
[4] = target: murine KOR (Mus musculus, UniProt P33534); test: Live cell GloSensor cAMP assay, antagonist mode, KOR-expressing HEK293T cells; details: for KOR Signaling: GloSensor cAMP, HEK293T, 10 μM forskolin, salvinorin A at EC80
[5] = target: T1, murine κ opioid receptor (KOR); test: biochemical
[6] = tested on: C56BL/6 mice
[7] = tested on: C56BL/6 mice; test: Conditioned place aversion in morphine tolerant mice
[8] = tested on: C56BL/6 mice; test: Opioid withdrawal symptoms assay in morphine tolerant mice; details: 1 h after morphine 20 mg/kg, naloxone 10 mg/kg, #020_E1 30 mg/kg
[9] = read-out: MOR Ki binding affinity, 3H-naltrexone displacement, mean from three dose response experiments
[10] = read-out: MOR Ki estimate (†), calculated from the Cheng–Prusoff equation based on a single point at 33 μM ligand
[11] = read-out: KOR Ki binding affinity, 3H-naltrexone displacement, mean from three dose response experiments

Compound 3H-naltrexone [reference compound] has a Kd ([1]; read-out: Kd of the radioligand in MOR membrane preparation, saturation experiments, nonspecific binding with 33 μM unlabeled naloxone) of 1.97 nM and a Kd ([2]; read-out: Kd of the radioligand in KOR membrane preparation, saturation experiments, nonspecific binding with 33 μM unlabeled naloxone) of 2.71 nM.
For `CCN1[C@@H]2C=C(C)[C@@](C)(C[C@H]2C(=O)OC)[C@@H]1C` (racemic) [(±)-#001], the Ki [1, 9] was 7100 nM.
For `CCN1CC(N2[C@@H]3C=C(c4ccccc4O)[C@@](C)(C[C@H]3C(=O)OC)[C@@H]2C)C1` (racemic) [(±)-#05], the Ki [1, 10] was 16000 nM and the Ki [2, 11] was 8000 nM.
`CCCCC1=C[C@@H]2[C@H](C(=O)OC)C[C@@]1(C)[C@H](C)N2C[C@@H]1CCO1` (racemic) [(±)-#09] gave a Ki [1, 10] of 14000 nM and a Ki ([2]; read-out: KOR Ki estimate (†), calculated from the Cheng–Prusoff equation based on a single point at 33 μM ligand) of 12000 nM.
Compound `COC(=O)C1CC2(C)C(c3ccco3)=CC1N(C(C)CN1CCCC1)C2C` (racemic) [(±)-#11] has a Ki [2, 11] of 400 nM.
With `COC(=O)[C@@H]1C[C@]2(C)C(C)=C(C)[C@H]1N(Cc1cnn(CC(F)F)c1)[C@H]2C` (racemic) [(±)-#56] the Ki [1, 9] was 8800 nM.
Work on `COC(=O)[C@@H]1C[C@]2(C)C(c3cc(F)cc(F)c3)=C[C@H]1N(C1CN(CCO)C1)[C@H]2C` (racemic) [(±)-#57] yielded a Ki [1, 9] of 5000 nM and a Ki [2, 11] of 1100 nM.
In the case of `COC(=O)C1CC2(C)C(c3cccc(O)c3)=CC1N(CCOc1c(C)cccc1C)C2C` (stereo not drawn) [#017_E2], the “MOR Signaling” value [3] is reported as “Antagonist” and the “KOR Signaling” value [4] is reported as “Antagonist”.
In the case of `COC(=O)C1CC2(C)C(c3cccc(O)c3)=C(C)C1N(C)C2C` (stereo not drawn) [#019_E2], the “MOR Signaling” value [3] is reported as “Antagonist” and the “KOR Signaling” value [4] is reported as “Inverse Agonist”.
In the case of `CCn1cc(CN2C3C=C(c4cccc(O)c4)C(C)(CC3C(=O)OC)C2C)cn1` (stereo not drawn) [#020_E2], the Ki [5] is reported as 1.1 nM, the “MOR Signaling” value [3] is reported as “Antagonist” and the EC50 [4] is reported as 380 nM. For the same compound, the “KOR Signaling” value [4] was “Antagonist”.
`CC1=C(c2cccc(O)c2)C2(C)CCC1N(CCc1ccccc1)C2C` (stereo not drawn) [#030_E2] was tested, and the “MOR Signaling” value [3] was “Antagonist” and the “KOR Signaling” value [4] was “Inverse Agonist”.
In the case of `CCn1cc(CN2C3C(C)=C(c4cccc(O)c4)C(C)(CC3C(=O)OC)C2C)cn1` (stereo not drawn) [#031_E2], the “MOR Signaling” value [3] is reported as “Antagonist” and the “KOR Signaling” value [4] is reported as “Inverse Agonist”.
Work on `COC(=O)[C@@H]1C[C@]2(C)C(c3ccc(O)c(OC)c3)=C[C@H]1N(CCN)[C@H]2C` [(+)-#33] yielded a Ki [1, 9] of 980 nM and a Ki [2, 11] of 1200 nM.
`CN1CC[C@]23c4c5ccc(O)c4O[C@H]2[C@@H](O)C=C[C@H]3[C@H]1C5` [morphine] was tested, and the Tail flick latency ([6]; 20 mg/kg i.p.) was “significantly increased tail flick latency”.
For `C=CCN1CC[C@]23c4c5ccc(O)c4O[C@H]2C(=O)CC[C@@]3(O)[C@H]1C5` [naloxone], the “i.p. dose required to return tail flick latency to baseline levels” value ([6]; blocking of 20mg/kg morphine induced analgesia, dose response) was 10 mg/kg, the “Time spent in the antagonist-paired chamber pre- vs post-conditioning” value ([7]; morphine tolerant mice, withdrawal precipitated by the antagonist) was “marked decrease in time spent in the antagonist-paired chamber; also recorded: significantly less time in the chamber” and the CPA score ([7]; test minus pretest time in drug-paired compartment) was “avoided the treatment compartment to a greater extent”. For the same compound, the “Precipitated opioid withdrawal symptoms (jumps, wet-dog shakes, rearing, forepaw shakes)” value [8] was “induced behaviors consistent with aversive withdrawal”.
